Values after ≈ are worked out from the molar mass of the structure shown. Where two headings read alike, the source gives them in different places. Values belong to the compound of their own block, whether it stands above or below them.
Legend:
[1] = tested on: bacteria, fungi and yeasts; details: general statement, no test data given, cited from earlier work
Aspergillus brasiliensis = assay: Minimum inhibitory concentration (MIC) in agar, antimicrobial efficacy; type: cell-based; details: Sabouraud 4% dextrose agar pH 5.6
Experimental: (§1) Below, the antimicrobial efficacy of a composition according to the invention consisting of 50% by weight of isorbide caprylate 1 and 50% by weight of a 2% by weight strength solution of methylisothiazolinone in water against bacteria, fungi and yeasts is examined (hereinbelow, the composition is referred to as “composition A”). For the tests with bacteria, composition A was diluted with butyl polyglycol and then, at 50° C., added to liquid CASO agar (casein-peptone agar) buffered to pH 7 (+/−0.2) in various concentrations (hereinbelow referred to as compositions B1, B2, etc.). For the tests with fungi and yeasts, composition A was diluted with butyl polyglycol and then added to liquid Sabouraud 4% dextrose agar buffered to pH 5.6 (+/−0.2) in various concentrations (hereinbelow referred to as compositions PH1, PH2, etc.). The compositions B1, B2, etc. and PH1, PH2 etc. were each poured into Petri dishes and each inoculated with identical amounts of bacteria, fungi and yeasts. The minimum inhibitory concentration (MIC) is the concentration at which inhibition of the growth of the bacteria, fungi and yeasts in the compositions B1, B2, etc. and PH1, PH2, etc. occurs.
(§2) The minimum inhibitory concentrations for the pure substances isosorbide caprylate 1 and methylisothiazolinone were determined analogously.
(§3) The values determined for the minimum inhibitory concentrations “MIC mixture”, stated in Table 1 below, are based on the concentrations of composition A.
(§4) The values determined for the minimum inhibitory concentrations “QA” and “QB”, stated in Table 1 below, have already been corrected for the dilution effect of the water and the butyl polyglycol.
(§5) Kull et al., Applied Microbiology 1961, 9, 538 using the formula below: […]
(§6) where • Qa is the minimum inhibitory concentration of isosorbide caprylate 1 in the mixture employed, • QA is the minimum inhibitory concentration of isosorbide caprylate 1, • Qb is the minimum inhibitory concentration of methylisothiazolinone in the mixture employed and • QB is the minimum inhibitory concentration of methylisothiazolinone.
(§7) The values for Qa and Qb are determined from the values for the mixtures (“MIC mixture”) by multiplying the minimum inhibitory concentrations determined for Qa with the factor 0.5 and for Qb with the factor 0.01, because of the proportions of the ingredients—50% by weight of isosorbide caprylate 1 and 50% by weight of a 2% by weight strength solution of methylisothiazolinone in water—in composition A according to the invention examined.
(§8) If an SE value >1 is obtained, an antagonistic effect is present.

Aspergillus terreus = assay: as above; type: cell-based; details: Sabouraud 4% dextrose agar pH 5.6
Experimental: as §1, §2, §3, §4, §5, §6, §7, §8

Candida albicans = assay: as above; type: cell-based; details: Sabouraud 4% dextrose agar pH 5.6
Experimental: as §1, §2, §3, §4, §5, §6, §7, §8

Citrobacter freundii = assay: as above; type: cell-based; details: CASO agar pH 7
Experimental: as §1, §2, §3, §4, §5, §6, §7, §8

Enterobacter aerogenes = assay: as above; type: cell-based; details: CASO agar pH 7
Experimental: as §1, §2, §3, §4, §5, §6, §7, §8

Escherichia coli = assay: as above; type: cell-based; details: CASO agar pH 7
Experimental: as §1, §2, §3, §4, §5, §6, §7, §8

Fusarium solani = assay: as above; type: cell-based; details: Sabouraud 4% dextrose agar pH 5.6
Experimental: as §1, §2, §3, §4, §5, §6, §7, §8

Klebsiella pneumoniae = assay: as above; type: cell-based; details: CASO agar pH 7
Experimental: as §1, §2, §3, §4, §5, §6, §7, §8

Penicillium funicolosium = assay: as above; type: cell-based; details: Sabouraud 4% dextrose agar pH 5.6
Experimental: as §1, §2, §3, §4, §5, §6, §7, §8

Penicillium minioluteum = assay: as above; type: cell-based; details: Sabouraud 4% dextrose agar pH 5.6
Experimental: as §1, §2, §3, §4, §5, §6, §7, §8

Proteus vulgaris = assay: as above; type: cell-based; details: CASO agar pH 7
Experimental: as §1, §2, §3, §4, §5, §6, §7, §8

Pseudomonas aeruginosa = assay: as above; type: cell-based; details: CASO agar pH 7
Experimental: as §1, §2, §3, §4, §5, §6, §7, §8

Pseudomonas oleovorans = assay: as above; type: cell-based; details: CASO agar pH 7
Experimental: as §1, §2, §3, §4, §5, §6, §7, §8

Staphylococcus aureus = assay: as above; type: cell-based; details: CASO agar pH 7
Experimental: as §1, §2, §3, §4, §5, §6, §7, §8

[2] = tested on: bacteria, fungi and yeasts; assay: Antimicrobial activity, overall statements on the test series; type: cell-based
Experimental: as §1, §2, §5

[3] = in composition A, MIC mixture x 0.01
[4] = pure substance, corrected for dilution

Compound: CCCCCCCC(=O)O [caprylic acid, octanoic acid]
antimicrobial activity (in words) ([1]; at a pH of 6 or above): no antimicrobial activity | antimicrobial efficacy (in words) [1]: antimicrobially effective

MIC (Aspergillus brasiliensis; Aspergillus brasiliensis, Table 2): 10000 µg/mL (≈ 68.4 mM) | MIC (Aspergillus terreus; Aspergillus terreus, Table 2): 10000 µg/mL (≈ 68.4 mM) | MIC (Candida albicans; Candida albicans, Table 2): 10000 µg/mL (≈ 68.4 mM) | MIC (Citrobacter freundii; Citrobacter freundii, Table 2): 10000 µg/mL (≈ 68.4 mM) | MIC (Enterobacter aerogenes; Klebsiella aerogenes, Table 2): 10000 µg/mL (≈ 68.4 mM) | MIC (Escherichia coli; Escherichia coli, Table 2): 10000 µg/mL (≈ 68.4 mM) | MIC (Fusarium solani; Fusarium solani, Table 2): 10000 µg/mL (≈ 68.4 mM) | MIC (Klebsiella pneumoniae; Klebsiella pneumoniae, Table 2): 10000 µg/mL (≈ 68.4 mM) | MIC (Penicillium funicolosium; Penicillium, Table 2): 10000 µg/mL (≈ 68.4 mM) | MIC (Penicillium minioluteum; Talaromyces minioluteus, Table 2): 10000 µg/mL (≈ 68.4 mM) | MIC (Proteus vulgaris; Proteus vulgaris, Table 2): 10000 µg/mL (≈ 68.4 mM) | MIC (Pseudomonas aeruginosa; Pseudomonas aeruginosa, Table 2): 10000 µg/mL (≈ 68.4 mM) | MIC (Pseudomonas oleovorans; Ectopseudomonas oleovorans, Table 2): 10000 µg/mL (≈ 68.4 mM) | MIC (Staphylococcus aureus; Staphylococcus aureus, Table 2): 10000 µg/mL (≈ 68.4 mM)
Compound: O[C@@H]1CO[C@H]2[C@@H]1OC[C@@H]2O [isosorbide]
antimicrobial activity (in words) ([2]; as shown by the results of Table 2): neither isosorbide nor isosorbide dicaprylate are antimicrobially active

Compound: isosorbide monocaprylate
antimicrobial activity (in words) ([2]; concluded from Tables 1 and 2): significant antimicrobial activity

Compound: Cn1sccc1=O [methylisothiazolinone]
Qb, calc. (MIC of methylisothiazolinone in the mixture employed) (Aspergillus brasiliensis; [3]): 10 ppm | QB, meas. (MIC of methylisothiazolinone) (Aspergillus brasiliensis; [4]): 100 ppm | Qb, calc. (MIC of methylisothiazolinone in the mixture employed) (Aspergillus terreus; [3]): 7.5 ppm | QB, meas. (MIC of methylisothiazolinone) (Aspergillus terreus; [4]): 100 ppm | Qb, calc. (MIC of methylisothiazolinone in the mixture employed) (Candida albicans; [3]): 10 ppm | QB, meas. (MIC of methylisothiazolinone) (Candida albicans; [4]): 100 ppm | Qb, calc. (MIC of methylisothiazolinone in the mixture employed) (Citrobacter freundii; [3]): 10 ppm | QB, meas. (MIC of methylisothiazolinone) (Citrobacter freundii; [4]): 15 ppm | Qb, calc. (MIC of methylisothiazolinone in the mixture employed) (Enterobacter aerogenes; [3]): 15 ppm | QB, meas. (MIC of methylisothiazolinone) (Enterobacter aerogenes; [4]): 15 ppm | Qb, calc. (MIC of methylisothiazolinone in the mixture employed) (Escherichia coli; [3]): 10 ppm | QB, meas. (MIC of methylisothiazolinone) (Escherichia coli; [4]): 10 ppm | Qb, calc. (MIC of methylisothiazolinone in the mixture employed) (Fusarium solani; [3]): 7.5 ppm | QB, meas. (MIC of methylisothiazolinone) (Fusarium solani; [4]): 100 ppm | Qb, calc. (MIC of methylisothiazolinone in the mixture employed) (Klebsiella pneumoniae; [3]): 15 ppm | QB, meas. (MIC of methylisothiazolinone) (Klebsiella pneumoniae; [4]): 15 ppm | Qb, calc. (MIC of methylisothiazolinone in the mixture employed) (Penicillium funicolosium; [3]): 7.5 ppm | QB, meas. (MIC of methylisothiazolinone) (Penicillium funicolosium; [4]): 100 ppm | Qb, calc. (MIC of methylisothiazolinone in the mixture employed) (Penicillium minioluteum; [3]): 7.5 ppm | QB, meas. (MIC of methylisothiazolinone) (Penicillium minioluteum; [4]): 100 ppm | Qb, calc. (MIC of methylisothiazolinone in the mixture employed) (Proteus vulgaris; [3]): 5 ppm | QB, meas. (MIC of methylisothiazolinone) (Proteus vulgaris; [4]): 5 ppm | Qb, calc. (MIC of methylisothiazolinone in the mixture employed) (Pseudomonas aeruginosa; [3]): 20 ppm | QB, meas. (MIC of methylisothiazolinone) (Pseudomonas aeruginosa; [4]): 40 ppm | Qb, calc. (MIC of methylisothiazolinone in the mixture employed) (Pseudomonas oleovorans; [3]): 5 ppm | QB, meas. (MIC of methylisothiazolinone) (Pseudomonas oleovorans; [4]): 5 ppm | Qb, calc. (MIC of methylisothiazolinone in the mixture employed) (Staphylococcus aureus; [3]): 25 ppm | QB, meas. (MIC of methylisothiazolinone) (Staphylococcus aureus; [4]): 40 ppm

Source: patent US20140329870A1, “COMPOSITIONS COMPRISING ISOSORBIDE MONOESTERS AND ISOTHIAZOLINONES” (CLARIANT INTERNATIONAL LTD., priority 2011, published 2014)
